Assay results taken from the NIST ThermoML archive (doi:10.1016/j.fluid.2008.03.004).

Experiment: xn = mol fraction of the nth substance listed
Details: 101 kPa, Liquid; for speed of sound: Sing-around technique in a fixed-path interferometer

CCOC(C)(C)C [2-ethoxy-2-methylpropane] + Cc1ccccc1C
Details	mass density [kg/m3]	speed of sound [m/s]
288.15 K, x1 = 0.055	875.654	1371.2
288.15 K, x1 = 0.098	870.017	1357.8
288.15 K, x1 = 0.201	855.684	1324.8
288.15 K, x1 = 0.307	840.866	1290.1
288.15 K, x1 = 0.4	827.772	1261.6
288.15 K, x1 = 0.502	813.516	1228.9
288.15 K, x1 = 0.601	800.311	1199
288.15 K, x1 = 0.661	791.943	1180.1
288.15 K, x1 = 0.803	772.557	1137.4
288.15 K, x1 = 0.895	759.896	1110.2
288.15 K, x1 = 0.947	752.872	1095
288.15 K, x1 = 1	744.955	1076.4
290.65 K, x1 = 0.055	873.542	1360.8
290.65 K, x1 = 0.098	867.884	1347.3
290.65 K, x1 = 0.201	853.503	1314.3
290.65 K, x1 = 0.307	838.637	1279.4
290.65 K, x1 = 0.4	825.503	1251
290.65 K, x1 = 0.502	811.198	1218.2
290.65 K, x1 = 0.601	797.952	1188.2
290.65 K, x1 = 0.661	789.556	1169.2
290.65 K, x1 = 0.803	770.105	1126.4
290.65 K, x1 = 0.895	757.404	1099.4
290.65 K, x1 = 0.947	750.354	1084.5
290.65 K, x1 = 1	742.482	1065.1
293.15 K, x1 = 0.055	871.419	1350.4
293.15 K, x1 = 0.098	865.74	1336.8
293.15 K, x1 = 0.201	851.313	1303.8
293.15 K, x1 = 0.307	836.397	1268.7
293.15 K, x1 = 0.4	823.223	1240.4
293.15 K, x1 = 0.502	808.871	1207.4
293.15 K, x1 = 0.601	795.578	1177.3
293.15 K, x1 = 0.661	787.156	1158.3
293.15 K, x1 = 0.803	767.641	1115.4
293.15 K, x1 = 0.895	754.895	1088.5
293.15 K, x1 = 0.947	747.821	1073.5
293.15 K, x1 = 1	739.947	1053.7
295.65 K, x1 = 0.055	869.295	1339.8
295.65 K, x1 = 0.098	863.594	1326.3
295.65 K, x1 = 0.201	849.119	1293.2
295.65 K, x1 = 0.307	834.156	1257.9
295.65 K, x1 = 0.4	820.937	1229.6
295.65 K, x1 = 0.502	806.537	1196.5
295.65 K, x1 = 0.601	793.199	1166.3
295.65 K, x1 = 0.661	784.75	1147.3
295.65 K, x1 = 0.803	765.167	1104.3
295.65 K, x1 = 0.895	752.377	1077.3
295.65 K, x1 = 0.947	745.278	1062.5
295.65 K, x1 = 1	737.374	1042.2
298.15 K, x1 = 0.055	867.167	1329.3
298.15 K, x1 = 0.098	861.446	1315.8
298.15 K, x1 = 0.201	846.922	1282.7
298.15 K, x1 = 0.307	831.91	1247.3
298.15 K, x1 = 0.4	818.651	1218.9
298.15 K, x1 = 0.502	804.2	1185.7
298.15 K, x1 = 0.601	790.817	1155.5
298.15 K, x1 = 0.661	782.341	1136.4
298.15 K, x1 = 0.803	762.689	1093.3
298.15 K, x1 = 0.895	749.853	1066.3
298.15 K, x1 = 0.947	742.726	1051.4
298.15 K, x1 = 1	734.806	1031
300.65 K, x1 = 0.055	865.039	1318.9
300.65 K, x1 = 0.098	859.296	1305.5
300.65 K, x1 = 0.201	844.725	1272.3
300.65 K, x1 = 0.307	829.661	1236.7
300.65 K, x1 = 0.4	816.36	1208.3
300.65 K, x1 = 0.502	801.859	1175
300.65 K, x1 = 0.601	788.431	1144.7
300.65 K, x1 = 0.661	779.923	1125.5
300.65 K, x1 = 0.803	760.203	1082.3
300.65 K, x1 = 0.895	747.321	1055.2
300.65 K, x1 = 0.947	740.169	1040.3
300.65 K, x1 = 1	732.225	1019.8
303.15 K, x1 = 0.055	862.904	1308.4
303.15 K, x1 = 0.098	857.143	1295.2
303.15 K, x1 = 0.201	842.523	1262
303.15 K, x1 = 0.307	827.409	1226.2
303.15 K, x1 = 0.4	814.064	1197.8
303.15 K, x1 = 0.502	799.512	1164.3
303.15 K, x1 = 0.601	786.037	1133.9
303.15 K, x1 = 0.661	777.502	1114.7
303.15 K, x1 = 0.803	757.711	1071.3
303.15 K, x1 = 0.895	744.78	1044.2
303.15 K, x1 = 0.947	737.602	1029.1
303.15 K, x1 = 1	729.647	1008.6
305.65 K, x1 = 0.055	860.769	1298
305.65 K, x1 = 0.098	854.986	1285
305.65 K, x1 = 0.201	840.317	1251.6
305.65 K, x1 = 0.307	825.151	1215.8
305.65 K, x1 = 0.4	811.766	1187.3
305.65 K, x1 = 0.502	797.158	1153.6
305.65 K, x1 = 0.601	783.634	1123.1
305.65 K, x1 = 0.661	775.073	1103.9
305.65 K, x1 = 0.803	755.208	1060.3
305.65 K, x1 = 0.895	742.232	1033.2
305.65 K, x1 = 0.947	735.025	1018
305.65 K, x1 = 1	727.038	997.52
308.15 K, x1 = 0.055	858.631	1287.6
308.15 K, x1 = 0.098	852.826	1274.8
308.15 K, x1 = 0.201	838.108	1241.4
308.15 K, x1 = 0.307	822.889	1205.4
308.15 K, x1 = 0.4	809.458	1176.8
308.15 K, x1 = 0.502	794.798	1143
308.15 K, x1 = 0.601	781.229	1112.4
308.15 K, x1 = 0.661	772.636	1093.1
308.15 K, x1 = 0.803	752.697	1049.4
308.15 K, x1 = 0.895	739.673	1022.1
308.15 K, x1 = 0.947	732.438	1007
308.15 K, x1 = 1	724.443	986.39
310.65 K, x1 = 0.055	856.488	1277.2
310.65 K, x1 = 0.098	850.664	1264.8
310.65 K, x1 = 0.201	835.894	1231.1
310.65 K, x1 = 0.307	820.623	1195
310.65 K, x1 = 0.4	807.147	1166.3
310.65 K, x1 = 0.502	792.433	1132.4
310.65 K, x1 = 0.601	778.816	1101.8
310.65 K, x1 = 0.661	770.192	1082.4
310.65 K, x1 = 0.803	750.176	1038.6
310.65 K, x1 = 0.895	737.1	1011.2
310.65 K, x1 = 0.947	729.838	996
310.65 K, x1 = 1	721.826	975.42
313.15 K, x1 = 0.055	854.337	1267.1
313.15 K, x1 = 0.098	848.496	1254.7
313.15 K, x1 = 0.201	833.676	1220.9
313.15 K, x1 = 0.307	818.351	1184.6
313.15 K, x1 = 0.4	804.83	1155.9
313.15 K, x1 = 0.502	790.061	1121.9
313.15 K, x1 = 0.601	776.395	1091.1
313.15 K, x1 = 0.661	767.738	1071.7
313.15 K, x1 = 0.803	747.65	1027.7
313.15 K, x1 = 0.895	734.522	1000.3
313.15 K, x1 = 0.947	727.227	985.03
313.15 K, x1 = 1	719.179	964.53
315.65 K, x1 = 0.055	852.189	1256.9
315.65 K, x1 = 0.098	846.323	1244.6
315.65 K, x1 = 0.201	831.454	1210.7
315.65 K, x1 = 0.307	816.076	1174.3
315.65 K, x1 = 0.4	802.508	1145.5
315.65 K, x1 = 0.502	787.684	1111.4
315.65 K, x1 = 0.601	773.969	1080.5
315.65 K, x1 = 0.661	765.278	1061
315.65 K, x1 = 0.803	745.112	1017
315.65 K, x1 = 0.895	731.932	989.44
315.65 K, x1 = 0.947	724.606	974.07
315.65 K, x1 = 1	716.527	953.54
318.15 K, x1 = 0.055	850.034	1246.8
318.15 K, x1 = 0.098	844.148	1234.5
318.15 K, x1 = 0.201	829.229	1200.6
318.15 K, x1 = 0.307	813.795	1164.1
318.15 K, x1 = 0.4	800.179	1135.1
318.15 K, x1 = 0.502	785.298	1100.9
318.15 K, x1 = 0.601	771.536	1070
318.15 K, x1 = 0.661	762.809	1050.4
318.15 K, x1 = 0.803	742.564	1006.2
318.15 K, x1 = 0.895	729.329	978.59
318.15 K, x1 = 0.947	721.974	963.16
318.15 K, x1 = 1	713.96	942.67
320.65 K, x1 = 0.055	847.874	1236.7
320.65 K, x1 = 0.098	841.964	1224.5
320.65 K, x1 = 0.201	826.995	1190.5
320.65 K, x1 = 0.307	811.507	1153.8
320.65 K, x1 = 0.4	797.84	1124.8
320.65 K, x1 = 0.502	782.908	1090.4
320.65 K, x1 = 0.601	769.096	1059.4
320.65 K, x1 = 0.661	760.332	1039.8
320.65 K, x1 = 0.803	740.007	995.53
320.65 K, x1 = 0.895	726.717	967.79
320.65 K, x1 = 0.947	719.329	952.29
320.65 K, x1 = 1	711.25	931.73
323.15 K, x1 = 0.055	845.711	1226.7
323.15 K, x1 = 0.098	839.779	1214.5
323.15 K, x1 = 0.201	824.757	1180.4
323.15 K, x1 = 0.307	809.216	1143.6
323.15 K, x1 = 0.4	795.504	1114.5
323.15 K, x1 = 0.502	780.509	1080
323.15 K, x1 = 0.601	766.647	1049
323.15 K, x1 = 0.661	757.845	1029.2
323.15 K, x1 = 0.803	737.438	984.84
323.15 K, x1 = 0.895	724.092	957.05
323.15 K, x1 = 0.947	716.673	941.53
323.15 K, x1 = 1	708.642	920.73
